# Entries after “also recorded” stand apart in the source; their conditions may differ. Read-outs that look alike come from different tables or passages of the source.
# Columns and labels:
# [1] = biological target: T1, recombinant human dopamine transporter (Homo sapiens, UniProt Q01959); experiment: [125I]RTI-55 binding, dopamine transporter in HEK 293 cells; settings: for Ki: DOPAMINE [I125]-RTI-55 BINDING (Ki), HEK 293 cells; for potency at binding to the dopamine transporter and blocking dopamine reuptake: in words, compared with MPH / other samples
# T1 construct: expressed in transfected cells
# [2] = biological target: T1, recombinant human dopamine transporter; experiment: dopamine reuptake inhibition in HEK 293 cells; type: cell-based; settings: for IC50: DOPAMINE DA REUPTAKE (IC50), HEK 293 cells; for NE/DA REUPTAKE: ratio of NE/DA reuptake IC50, selectivity for dopamine over norepinephrine transporter
# [3] = biological target: T2, recombinant human serotonin transporter (Homo sapiens, UniProt P31645); experiment: biochemical; type: binding
# T2 construct: expressed in transfected cells
# [4] = biological target: T3, recombinant human norepinephrine transporter (Homo sapiens, UniProt P23975); experiment: biochemical; type: binding
# T3 construct: expressed in transfected cells
# [5] = biological target: T2, recombinant human serotonin transporter; experiment: serotonin (5HT) reuptake inhibition in HEK 293 cells; type: cell-based; settings: SEROTONIN 5HT REUPTAKE (IC50), HEK 293 cells
# [6] = biological target: T3, recombinant human norepinephrine transporter; experiment: cell-based
# [7] = SEROTONIN [I125]-RTI-55 BINDING (Ki)
# [8] = NOREPINEPHRINE [I125]-RTI-55 BINDING (Ki)
# [9] = RS/SR racemates table, HEK 293 cells, read-out: NOREPINEPHRINE NE REUPTAKE (IC50)
# [10] = RR/SS racemates table, HEK 293 cells, read-out: NOREPINEPHRINE NE REUPTAKE (IC50)
# [11] = RS/SR racemates table, HEK 293 cells, read-out: SEROTONIN [I125]-RTI-55 BINDING (Ki)
# [12] = RR/SS racemates table, HEK 293 cells, read-out: SEROTONIN [I125]-RTI-55 BINDING (Ki)
# [13] = RS/SR racemates table, HEK 293 cells, read-out: NOREPINEPHRINE [I125]-RTI-55 BINDING (Ki)
# T2 sequence (P31645 whole entry): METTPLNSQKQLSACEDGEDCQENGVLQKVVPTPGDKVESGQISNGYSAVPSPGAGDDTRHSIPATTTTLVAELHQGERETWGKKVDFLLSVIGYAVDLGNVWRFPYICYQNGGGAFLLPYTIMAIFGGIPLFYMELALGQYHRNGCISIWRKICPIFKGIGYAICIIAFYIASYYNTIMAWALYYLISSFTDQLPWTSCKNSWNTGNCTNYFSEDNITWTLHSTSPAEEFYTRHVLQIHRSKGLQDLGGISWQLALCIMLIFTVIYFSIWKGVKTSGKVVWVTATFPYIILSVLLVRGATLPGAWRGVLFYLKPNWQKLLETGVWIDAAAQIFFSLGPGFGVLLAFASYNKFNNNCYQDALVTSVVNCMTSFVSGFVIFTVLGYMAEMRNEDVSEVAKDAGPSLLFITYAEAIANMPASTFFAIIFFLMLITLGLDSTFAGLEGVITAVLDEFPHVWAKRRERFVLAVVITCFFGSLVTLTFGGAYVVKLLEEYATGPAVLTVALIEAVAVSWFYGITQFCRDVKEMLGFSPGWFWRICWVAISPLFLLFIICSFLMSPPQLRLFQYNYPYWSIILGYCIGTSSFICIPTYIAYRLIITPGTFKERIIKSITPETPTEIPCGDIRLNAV
# T3 sequence (P23975 whole entry): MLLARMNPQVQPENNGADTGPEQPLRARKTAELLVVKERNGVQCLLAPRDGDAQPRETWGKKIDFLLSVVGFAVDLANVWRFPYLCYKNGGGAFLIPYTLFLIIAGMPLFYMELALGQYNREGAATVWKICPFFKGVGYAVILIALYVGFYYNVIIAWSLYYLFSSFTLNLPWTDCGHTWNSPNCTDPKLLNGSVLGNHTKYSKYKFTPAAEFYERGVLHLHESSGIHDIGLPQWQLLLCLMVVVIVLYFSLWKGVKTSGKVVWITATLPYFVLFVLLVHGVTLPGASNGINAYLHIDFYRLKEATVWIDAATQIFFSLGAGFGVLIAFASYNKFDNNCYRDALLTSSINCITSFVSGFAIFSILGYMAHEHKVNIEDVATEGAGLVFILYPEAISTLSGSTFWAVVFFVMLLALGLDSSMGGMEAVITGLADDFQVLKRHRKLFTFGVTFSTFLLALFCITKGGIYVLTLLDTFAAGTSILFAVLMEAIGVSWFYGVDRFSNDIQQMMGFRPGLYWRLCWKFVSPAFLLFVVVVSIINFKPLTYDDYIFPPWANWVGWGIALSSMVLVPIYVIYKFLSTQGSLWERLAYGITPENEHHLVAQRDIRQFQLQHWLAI
# T1 sequence (Q01959 whole entry): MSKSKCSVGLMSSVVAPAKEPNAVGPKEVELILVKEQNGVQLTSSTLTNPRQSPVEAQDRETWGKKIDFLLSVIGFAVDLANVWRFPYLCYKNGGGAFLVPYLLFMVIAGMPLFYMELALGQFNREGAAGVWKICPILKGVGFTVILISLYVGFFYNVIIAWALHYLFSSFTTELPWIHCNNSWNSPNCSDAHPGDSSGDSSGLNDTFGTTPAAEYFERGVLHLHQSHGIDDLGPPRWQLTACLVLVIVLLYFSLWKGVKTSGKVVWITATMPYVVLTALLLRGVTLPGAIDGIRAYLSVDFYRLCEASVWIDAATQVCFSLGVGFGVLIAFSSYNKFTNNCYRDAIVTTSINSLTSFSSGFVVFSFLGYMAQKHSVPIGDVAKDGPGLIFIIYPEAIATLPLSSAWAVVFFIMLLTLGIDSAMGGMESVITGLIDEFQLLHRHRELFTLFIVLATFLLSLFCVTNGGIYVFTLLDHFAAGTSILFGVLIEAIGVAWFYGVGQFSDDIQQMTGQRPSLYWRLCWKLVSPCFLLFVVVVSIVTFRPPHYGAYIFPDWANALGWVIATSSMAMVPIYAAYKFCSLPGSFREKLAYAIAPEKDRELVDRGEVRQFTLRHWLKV
Compound,Ki ([1]; RS/SR racemates table) [µM],IC50 ([2]; RS/SR racemates table) [µM],"Ki [3, 7] [µM]","Ki [4, 8] [µM]",Ki ([1]; RR/SS racemates table) [µM],IC50 ([2]; RR/SS racemates table) [µM],NE/DA REUPTAKE [2],IC50 ([5]; RR/SS racemates table) [µM],IC50 ([6]; NORE[…] REUPTAKE (IC50)) [µM],IC50 ([5]; RS/SR racemates table) [µM],further results
"CC(C)C(c1ccc(Cl)cc1)C1CCCCN1 (single isomer, unassigned) [CC]",0.9 ± 0.32,0.99 ± 0.28,> 10,> 10,–,–,–,–,–,–,–
"CC(C)C(c1ccc(Cl)cc1)C1CCCCN1 (single isomer, unassigned) [C]",–,–,5.3 ± 1.3,0.81 ± 0.17,0.046 ± 0.016,0.032 ± 0.006,1.6,3.3 ± 0.4,0.051 ± 0.02,–,–
"CCCCC(c1ccc(Cl)cc1)C1CCCCN1 (single isomer, unassigned) [GG]",0.29 ± 0.07,0.17 ± 0.04,–,–,–,–,–,–,–,–,"Ki ([4]; NOREPINEPHRINE [I125]-RTI-55 BINDING (Ki), RS/SR racemates table, HEK 293 cells): 1.6 ± 0.3 µM; IC50 [6, 9]: 0.18 ± 0.16 µM"
"CCCCC(c1ccc(Cl)cc1)C1CCCCN1 (single isomer, unassigned) [G]",–,–,–,–,0.0078 ± 0.0011,0.0082 ± 0.0021,–,–,–,–,"potency at binding to the dopamine transporter and blocking dopamine reuptake [1]: enhanced potency; also recorded: most potent; Ki ([4]; NOREPINEPHRINE [I125]-RTI-55 BINDING (Ki), RR/SS racemates table, HEK 293 cells): 0.23 ± 0.03 µM; IC50 [6, 10]: 0.026 ± 0.007 µM"
"Clc1ccc(C(CC2CCCCC2)C2CCCCN2)cc1 (single isomer, unassigned) [HH]",0.26 ± 0.03,0.41 ± 0.06,–,4.3 ± 0.2,–,–,–,–,1.7 ± 0.6,6.4 ± 1.3,"Ki [3, 11]: 3.7 ± 0.5 µM"
"Clc1ccc(C(CC2CCCCC2)C2CCCCN2)cc1 (single isomer, unassigned) [H]",–,–,–,4.2 ± 0.2,0.13 ± 0.04,0.23 ± 0.07,4.1,1 ± 0.2,0.94 ± 0.14,–,"Ki [3, 12]: 0.9 ± 0.4 µM"
"Clc1ccc(C(CCc2ccccc2)C2CCCCN2)cc1 (single isomer, unassigned) [II]",0.7 ± 0.09,0.42 ± 0.14,1.84 ± 0.07,2.4 ± 0.7,–,–,–,–,0.61 ± 0.15,2.1 ± 0.9,–
"Clc1ccc(C(CCc2ccccc2)C2CCCCN2)cc1 (single isomer, unassigned) [I]",–,–,0.64 ± 0.06,1.8 ± 0.6,0.024 ± 0.009,0.16 ± 0.02,4.3,0.65 ± 0.219,0.68 ± 0.24,–,–
"Clc1ccc(C(Cc2ccccc2)C2CCCCN2)cc1 (single isomer, unassigned) [JJ]",0.55 ± 0.06,0.39 ± 0.06,4.3 ± 0.8,4 ± 0.8,–,–,–,–,> 0.8,4.7 ± 0.5,–
"Clc1ccc(C(Cc2ccccc2)C2CCCCN2)cc1 (single isomer, unassigned) [J]",–,–,1.1 ± 0.2,2.9 ± 0.8,0.44 ± 0.11,0.37 ± 0.09,7.8,1.1 ± 0.2,2.9 ± 0.6,–,"selectivity for the dopamine transporter over the norepinephrine transporter ([2]; in words, from binding and reuptake values): enhanced selectivity"
"Clc1ccc(C(C2CCCC2)C2CCCCN2)cc1 (single isomer, unassigned) [KK]",0.69 ± 0.14,0.24 ± 0.03,–,–,–,–,–,–,–,4.2 ± 0.9,"Ki [3, 11]: 4.6 ± 0.7 µM"
"Clc1ccc(C(C2CCCC2)C2CCCCN2)cc1 (single isomer, unassigned) [K]",–,–,–,–,0.036 ± 0.01,0.027 ± 0.0083,–,4.6 ± 0.8,–,–,"Ki [3, 12]: 5.7 ± 1.1 µM"
"COC(=O)C(c1ccc(Cl)c(Cl)c1)C1CCCCN1 (single isomer, unassigned) [MM]",0.09 ± 0.014,0.8 ± 0.11,–,–,–,–,–,–,–,1.1 ± 0.09,"Ki [3, 11]: 2.5 ± 0.42 µM; Ki [4, 13]: 4.2 ± 1.9 µM; IC50 [6, 9]: 0.19 ± 0.05 µM"
"COC(=O)C(c1ccc(Cl)c(Cl)c1)C1CCCCN1 (single isomer, unassigned) [M]",–,–,–,–,0.0014 ± 0.0001,0.023 ± 0.003,0.43,0.54 ± 0.11,–,–,"Ki [3, 12]: 1.6 ± 0.15 µM; Ki ([4]; RR/SS racemates table, HEK 293 cells, read-out: NOREPINEPHRINE [I125]-RTI-55 BINDING (Ki)): 0.014 ± 0.006 µM; IC50 [6, 10]: 0.01 ± 0.001 µM"
"CC(C)CC(c1ccc(Cl)c(Cl)c1)C1CCCCN1C (single isomer, unassigned) [OO]",0.044 ± 0.012,0.045 ± 0.004,–,–,–,–,–,–,–,2.4 ± 0.7,"potency at binding to the dopamine transporter and blocking dopamine reuptake [1]: considerably more potent; also recorded: most potent; Ki [3, 11]: 1.5 ± 0.3 µM; Ki [4, 13]: 0.66 ± 0.13 µM; IC50 [6, 9]: 0.1 ± 0.019 µM"

# Source: patent publication US20060100243A1 (priority 2004, published 2006)
